Assays:
[1] = system: acetylcholine activity on heart rate; assay: Inhibition of acetylcholine activity on heart rate in the guinea pig; format: in vivo; conditions: Cavia porcellus, iv, 5 min; anaesthetised guinea pig; 5 minutes after test substance; 10 microgram/kg acetylcholine i.v. and i.a.; heart rate by ECG; read-out: log ED50, Heart (converted)
Method: (§1) 5 minutes after the administration of the test substance, 10 microgram/kg of acetylcholine were simultaneously injected intravenously and intra-arterially into anaesthetised guinea pigs. The heart rate was recorded directly by extracorporeal derivation of the ECG, the expiration resistance according to Konzett-Rossler and contraction of the exposed bladder. In order to determine the inhibition of the acetylcholine activity on the organs under investigation, dosage/activity curves were recorded and from them -log ED50 values were determined. […] The following compounds for example were investigated as described above: […]

[2] = system: vagal bradycardia (M2); assay: M1/M2 selectivity in the rat: reduction of vagal bradycardia (M2); format: in vivo, rat (male THOM); conditions: iv, 5 minutes before vagus stimulation, 50% reduction of vagal bradycardia (M2), read-out: log ED50, Heart (converted)
Method: (§2) The dosage of the substances which reduced either the vagal bradycardia (M2) or the rise in blood pressure (M1) by 50% was determined graphically. For the results see Table II.

[3] = system: acetylcholine activity on bladder; assay: Inhibition of acetylcholine activity on the bladder in the guinea pig; format: in vivo; conditions: Cavia porcellus, iv, 5 min; anaesthetised guinea pig; 5 minutes after test substance; 10 microgram/kg acetylcholine i.v. and i.a.; contraction of exposed bladder; read-out: log ED50, Bladder (converted)
Method: as §1

[4] = system: rise in blood pressure (M1); assay: M1/M2 selectivity in the rat: reduction of rise in blood pressure caused by McN-A-343 (M1); format: in vivo, rat (male THOM); conditions: iv, 5 minutes before 0.3 mg/kg McN-A-343 i.v., 50% reduction of rise in blood pressure (M1), read-out: log ED50, Blood pressure (converted)
Method: as §2

[5] = target: T1, muscarinic receptors (heart) (Rattus norvegicus, UniProt P10980); assay: Receptor binding test in vitro, heart (3H-N-methylscopolamine displacement); parameters: species or system rat (male Sprague-Dawley); conditions: whole heart; 0.3 nanomolar 3H-NMS; 30° C.; 45 minutes; pH 7.4
T1 construct: The whole heart was cut up with scissors; All the organs were then homogenised in a Potter apparatus; from tissue; host or cells: rat whole heart homogenate
T1 sequence (P10980 1-466): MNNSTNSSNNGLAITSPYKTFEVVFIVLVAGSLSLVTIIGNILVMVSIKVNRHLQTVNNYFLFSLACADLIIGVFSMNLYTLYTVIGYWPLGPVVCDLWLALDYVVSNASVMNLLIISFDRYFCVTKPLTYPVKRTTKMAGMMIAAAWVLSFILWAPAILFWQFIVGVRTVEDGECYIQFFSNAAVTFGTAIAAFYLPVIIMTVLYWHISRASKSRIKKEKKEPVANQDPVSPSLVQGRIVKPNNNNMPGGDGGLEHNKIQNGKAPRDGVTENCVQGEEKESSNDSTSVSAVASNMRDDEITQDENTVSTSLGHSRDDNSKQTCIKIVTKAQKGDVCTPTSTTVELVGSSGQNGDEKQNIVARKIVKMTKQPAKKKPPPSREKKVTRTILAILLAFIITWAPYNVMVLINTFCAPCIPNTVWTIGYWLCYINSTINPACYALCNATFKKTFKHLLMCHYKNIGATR
Method: (§3) The organs were donated by male Sprague-Dawley rats weighing 180-220 g. After the heart and submandibular gland and cerebral cortex had been removed, all other steps were carried out in ice cold Hepes HCl buffer (pH 7.4; 100 millimolar NaCl, 10 millimolar MgCl2). The whole heart was cut up with scissors. All the organs were then homogenised in a Potter apparatus.
(§4) For the binding test the homogenised organs were diluted as follows:
(§5) The homogenised organs were incubated at a certain concentration of the radioaligned and at a series of concentrations of the non-radioactive test substances in an Eppendorf centrifuge tube at 30° C. Incubation lasted 45 minutes. The radioligand used was 0.3 nanomolar ^3 H-N-methylscopolamine (^3 H-NMS). Incubation was ended by the addition of ice cold buffer followed by vacuum filtration. The filters were rinsed with cold buffer and their radioactivity was determined. It represents the sum of specific and non-specific binding of ^3 H-NMS. The proportion of non-specific binding was defined as the radioactivity which was bound in the presence of 1 micromolar quinuclidinylbenzylate. Each measurement was taken four times. The IC50 values of the non-labelled test substances were determined graphically. They represent that concentration of test substance at which the specific binding of ^3 H-NMS to the muscarinic receptors in the various organs was inhibited by 50%. […] PG,17

[6] = target: T2, muscarinic receptors (submandibular gland) (Rattus norvegicus, UniProt P08483); assay: Receptor binding test in vitro, submandibular gland (3H-N-methylscopolamine displacement); parameters: species or system rat (male Sprague-Dawley); conditions: 0.3 nanomolar 3H-NMS, 30° C., 45 minutes, pH 7.4
T2 construct: All the organs were then homogenised in a Potter apparatus; from tissue; host or cells: rat submandibular gland homogenate
T2 sequence (P08483 whole entry): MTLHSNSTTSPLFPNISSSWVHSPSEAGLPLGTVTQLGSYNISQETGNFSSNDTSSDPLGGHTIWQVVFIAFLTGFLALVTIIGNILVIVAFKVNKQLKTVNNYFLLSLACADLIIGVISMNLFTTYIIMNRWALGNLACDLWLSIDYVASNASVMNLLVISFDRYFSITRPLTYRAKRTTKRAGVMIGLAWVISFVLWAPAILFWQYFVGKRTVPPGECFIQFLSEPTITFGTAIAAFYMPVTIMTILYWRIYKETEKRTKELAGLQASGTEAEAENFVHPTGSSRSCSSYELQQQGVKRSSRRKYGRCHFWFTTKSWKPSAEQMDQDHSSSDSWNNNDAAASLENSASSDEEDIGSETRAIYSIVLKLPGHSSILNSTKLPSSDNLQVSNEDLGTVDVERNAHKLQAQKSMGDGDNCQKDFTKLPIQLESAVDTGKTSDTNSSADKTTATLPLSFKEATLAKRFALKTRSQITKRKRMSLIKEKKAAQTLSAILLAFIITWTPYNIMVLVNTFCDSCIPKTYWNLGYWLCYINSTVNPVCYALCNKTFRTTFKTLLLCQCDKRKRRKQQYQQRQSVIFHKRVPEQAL
Method: as §3, §4, §5

[7] = system: secretion of saliva; assay: Salivation-inhibiting effect in the rat (pilocarpine); format: in vivo, rat (male THOM); conditions: iv; urethane-anaesthetised rat; i.v.; 2 mg/kg pilocarpine s.c.; 50% reduction of saliva volume; read-out: log ED50, Salivation (converted)
Method: The secretion of saliva was initiated by subcutaneous administration of 2 mg/kg of pilocarpine. The saliva was absorbed with blotting paper and the surface area covered was measured every 5 minutes by planimetry. The dosage of the substance which reduced the volume of saliva by 50% was determined graphically. For the results see Table II.

[8] = system: acetylcholine activity on bronchi; assay: Inhibition of acetylcholine activity on the bronchi in the guinea pig; format: in vivo; conditions: Cavia porcellus, iv, 5 min; anaesthetised guinea pig; 5 minutes after test substance; 10 microgram/kg acetylcholine i.v. and i.a.; expiration resistance (Konzett-Rossler); read-out: log ED50, Bronchi (converted)
Method: as §1

[9] = target: muscarinic receptors (cerebral cortex); assay: Receptor binding test in vitro, cerebral cortex (3H-N-methylscopolamine displacement); parameters: species or system rat (male Sprague-Dawley); conditions: 0.3 nanomolar 3H-NMS, 30° C., 45 minutes, pH 7.4
Method: as §3, §4, §5

SMILES | IC50 [5] [nM] | IC50 [6] [nM] | IC50 [9] [nM] | ED50 [1] [µmol/kg] | ED50 [2] [µmol/kg] | ED50 [3] [µmol/kg] | ED50 [4] [µmol/kg] | ED50 [7] [µmol/kg] | ED50 [8] [µmol/kg]
CN1CCN(CC(=O)N2c3ccccc3C(=O)Nc3cccnc32)CC1 [F] |  |  |  | 1.41 |  | 4.37 |  |  | 0.269
CN1[C@@H]2CC[C@H]1CC(OC(=O)C(CO)c1ccccc1)C2 (stereo partly drawn) [G] |  |  |  | 0.02 | 0.0115 | 0.0933 | 0.0457 |  | 
CCN(CC)CC1CCCCN1CC(=O)N1c2ccccc2C(=O)Nc2cccnc21 (stereo not drawn) [Substance E, 11-[[2-[(diethylamino)methyl]-1-piperidinyl]acetyl]-5,11-dihydro-6H-pyrido [2,3-b][1,4]benzodiazepin-6-one, reference compound] |  |  |  | 1.45 | 0.38 | 18.6 |  | 10 | 2.63

The next lines start with results.

IC50 [5] [nM] | IC50 [6] [nM] | IC50 [9] [nM] | SMILES | ED50 [1] [µmol/kg] | ED50 [2] [µmol/kg] | ED50 [3] [µmol/kg] | ED50 [4] [µmol/kg] | ED50 [7] [µmol/kg] | ED50 [8] [µmol/kg]
5 | 200 | 60 | Cc1scc2c1N(C(=O)CN1CCC(CCCN3CCCCC3)CC1)c1ccccc1NC2=O [A] | 0.123 | 0.0724 | 2.75 | 1.51 | 6.31 | 0.282
20 | 550 | 200 | O=C1Nc2cccnc2N(C(=O)CN2CCC(CCCN3CCCCC3)CC2)c2ccccc21 [B] | 0.123 |  | 1.82 |  |  | 0.468
9 | 200 | 50 | O=C1Nc2cccnc2N(C(=O)CN2CCC(CCCCN3CCCCC3)CC2)c2ccccc21 [C] | 0.0871 | 0.115 | 2.63 | 3.8 | > 31.6 | 0.661
50 | 1500 | 500 | CN1CCC(CCCC2CCN(CC(=O)N3c4ccccc4C(=O)Nc4cccnc43)CC2)CC1 [D] | 0.355 |  | > 10 |  |  | 0.851

Reference: patent US5175158A, “Condensed diazepinones, processes for preparing them and pharmaceutical compositions containing these compounds” (Dr. Karl Thomae, GmbH, priority 1987, dated 1992)
